One test deals with MDA-MB-231. Put plainly: Cytotoxicity against human MDA-MB-231 cells assessed as inhibition of cell growth incubated for 48 hrs by MTT assay. Conditions: MDA-MB-231, 48 h. It is filed as functional, cell-based. On the technique in general: Formazan colour is commonly taken as a measure of viable cells.
For a further test, the system named is MX1. Description: Cytotoxicity against human MX1 cells harbouring BRCA1 mutant assessed as inhibition of cell growth incubated for 48 hrs by MTT assay. It is filed as functional, cell-based. Conditions: MX1, 48 h.
A further test relates to HCC1937. Put plainly: Cytotoxicity against human HCC1937 cells assessed as inhibition of cell growth incubated for 48 hrs by MTT assay. The class given is functional, cell-based. Conditions: HCC1937, 48 h.
For test [1], the system named is MCF7. Description: Cytotoxicity against human MCF7 cells harbouring wild type BRCA1/2 assessed as inhibition of cell growth at 25 uM incubated for 48 hrs by MTT assay relative to control. It is filed as functional.
For test [2], the system named is MCF7. Description: Potentiation of adriamycin-induced cytotoxicity in human MCF7 cells harbouring wild type BRCA1/2 assessed as inhibition of cell growth at 25 uM incubated for 48 hrs in presence of 0.8 uM adriamycin by MTT assay relative to control. The class given is functional.
Another test has as its system SK-BR-3. Put plainly: Cytotoxicity against human SK-BR-3 cells harbouring wild type BRCA1/2 assessed as inhibition of cell growth incubated for 48 hrs by MTT assay. The class given is functional, cell-based. The settings on record: SK-BR-3, 48 h.
For test [3], the system named is MCF7. Description: Synergistic cytotoxicity against human MCF7 cells harbouring wild type BRCA1/2 assessed as combination index at 25 uM incubated for 48 hrs in presence of 0.8 uM adriamycin by MTT assay. It is filed as functional.
The subject of test [4] is MCF7. Put plainly: Cytotoxicity against human MCF7 cells harbouring wild type BRCA1/2 assessed as inhibition of cell growth incubated for 48 hrs by MTT assay. The settings on record: MCF7, 48 h. It is filed as functional, cell-based.
The subject of test [5] is MCF7. Put plainly: Cytotoxicity against human MCF7 cells harbouring wild type BRCA1/2 assessed as inhibition of cell growth at 17.5 uM incubated for 48 hrs by MTT assay relative to control. The class given is functional.
Test [6] relates to MCF7. Put plainly: Synergistic cytotoxicity against human MCF7 cells harbouring wild type BRCA1/2 assessed as combination index at 17.5 uM incubated for 48 hrs in presence of 0.8 uM adriamycin by MTT assay. It is filed as functional.
Test [7] has as its system MCF7. Put plainly: Potentiation of adriamycin-induced cytotoxicity in human MCF7 cells harbouring wild type BRCA1/2 assessed as inhibition of cell growth at 17.5 uM incubated for 48 hrs in presence of 0.8 uM adriamycin by MTT assay relative to control. The class given is functional.
A further test deals with MDA-MB-468. Description: Cytotoxicity against human MDA-MB-468 cells assessed as inhibition of cell growth incubated for 48 hrs by MTT assay. It is filed as functional, cell-based. The settings on record: MDA-MB-468, 48 h.
Test [8] addresses Poly [ADP-ribose] polymerase 1 (Homo sapiens) (UniProt P09874). Description: Inhibition of PARP-1 (unknown origin) at 0.1 uM preincubated for 10 mins followed by PARP cocktail addition and measured after 60 mins by colorimetric assay relative to control. The settings on record: time 70.0 min.
In test [9] the target is Epidermal growth factor receptor (Homo sapiens) (UniProt P00533). Description: Inhibition of human EGFR in human HCC1937 cells assessed as reduction in phosphorylated EGFR level at 10 uM incubated for 48 hrs by Western blot analysis. The class given is cell-based. In general terms: Immunoblotting shows a protein as a band on a membrane.
Epidermal growth factor receptor (Homo sapiens), sequence (P00533 whole entry): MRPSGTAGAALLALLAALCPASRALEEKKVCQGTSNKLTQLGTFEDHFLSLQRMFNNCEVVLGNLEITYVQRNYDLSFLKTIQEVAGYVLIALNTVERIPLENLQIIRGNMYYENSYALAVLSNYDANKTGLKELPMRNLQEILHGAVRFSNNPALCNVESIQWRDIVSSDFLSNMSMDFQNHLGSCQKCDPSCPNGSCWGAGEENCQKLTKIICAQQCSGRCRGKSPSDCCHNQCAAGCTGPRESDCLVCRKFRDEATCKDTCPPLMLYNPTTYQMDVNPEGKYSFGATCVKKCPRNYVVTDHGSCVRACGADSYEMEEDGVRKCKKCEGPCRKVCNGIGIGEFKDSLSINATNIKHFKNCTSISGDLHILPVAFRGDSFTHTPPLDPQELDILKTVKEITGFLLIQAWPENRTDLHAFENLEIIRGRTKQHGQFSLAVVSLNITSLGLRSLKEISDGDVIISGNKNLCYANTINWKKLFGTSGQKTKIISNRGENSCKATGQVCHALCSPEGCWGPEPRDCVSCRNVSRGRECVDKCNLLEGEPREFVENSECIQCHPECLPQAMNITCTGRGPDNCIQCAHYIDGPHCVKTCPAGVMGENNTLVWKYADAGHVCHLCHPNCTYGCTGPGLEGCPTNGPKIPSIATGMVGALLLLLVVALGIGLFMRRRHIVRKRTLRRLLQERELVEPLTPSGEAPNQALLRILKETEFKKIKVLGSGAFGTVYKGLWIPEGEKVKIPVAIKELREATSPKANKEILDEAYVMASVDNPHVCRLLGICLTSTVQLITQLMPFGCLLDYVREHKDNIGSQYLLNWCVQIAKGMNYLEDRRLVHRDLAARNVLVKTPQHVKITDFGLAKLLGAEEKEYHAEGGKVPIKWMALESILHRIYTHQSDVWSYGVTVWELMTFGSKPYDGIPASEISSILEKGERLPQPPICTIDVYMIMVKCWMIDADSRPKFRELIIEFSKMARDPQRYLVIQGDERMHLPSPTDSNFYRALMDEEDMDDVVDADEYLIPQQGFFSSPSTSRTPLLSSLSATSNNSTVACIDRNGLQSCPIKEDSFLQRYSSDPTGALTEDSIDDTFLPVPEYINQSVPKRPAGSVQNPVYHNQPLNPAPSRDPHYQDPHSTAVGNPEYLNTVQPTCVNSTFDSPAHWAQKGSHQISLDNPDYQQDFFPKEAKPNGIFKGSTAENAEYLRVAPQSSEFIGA
Test [10] concerns the target Poly [ADP-ribose] polymerase 1 (Homo sapiens) (UniProt P09874). Description: Inhibition of PARP-1 in human MCF7 cells assessed as inhibition of PARylation by measuring reduction in PARP protein expression at 1 uM pretreated with adriamycin followed by compound addition and measured after 48 hrs by Western bot analysis. The class given is cell-based.
Test [11] deals with Epidermal growth factor receptor (Homo sapiens) (UniProt P00533). Description: Inhibition of human EGFR in human HCC1937 cells assessed as reduction in EGFR level at 10 uM incubated for 48 hrs by Western blot analysis. The class given is cell-based.
For test [12], the system named is MCF7. Put plainly: Potentiation of adriamycin-induced cytotoxicity in human MCF7 cells harbouring wild type BRCA1/2 assessed as inhibition of cell growth at 10 uM incubated for 48 hrs in presence of 0.8 uM adriamycin by MTT assay relative to control. It is filed as functional.
The subject of test [13] is MCF7. Description: Cytotoxicity against human MCF7 cells harbouring wild type BRCA1/2 assessed as inhibition of cell growth at 10 uM incubated for 48 hrs by MTT assay relative to control. It is filed as functional.
In test [14] the test system is MCF7. Description: Synergistic cytotoxicity against human MCF7 cells harbouring wild type BRCA1/2 assessed as combination index at 10 uM incubated for 48 hrs in presence of 0.8 uM adriamycin by MTT assay. The class given is functional.

Structures are written as SMILES. Active and inactive are the calls of the source. The rule behind the calls is not given here.

Poly [ADP-ribose] polymerase 1 (Homo sapiens), sequence (P09874 whole entry): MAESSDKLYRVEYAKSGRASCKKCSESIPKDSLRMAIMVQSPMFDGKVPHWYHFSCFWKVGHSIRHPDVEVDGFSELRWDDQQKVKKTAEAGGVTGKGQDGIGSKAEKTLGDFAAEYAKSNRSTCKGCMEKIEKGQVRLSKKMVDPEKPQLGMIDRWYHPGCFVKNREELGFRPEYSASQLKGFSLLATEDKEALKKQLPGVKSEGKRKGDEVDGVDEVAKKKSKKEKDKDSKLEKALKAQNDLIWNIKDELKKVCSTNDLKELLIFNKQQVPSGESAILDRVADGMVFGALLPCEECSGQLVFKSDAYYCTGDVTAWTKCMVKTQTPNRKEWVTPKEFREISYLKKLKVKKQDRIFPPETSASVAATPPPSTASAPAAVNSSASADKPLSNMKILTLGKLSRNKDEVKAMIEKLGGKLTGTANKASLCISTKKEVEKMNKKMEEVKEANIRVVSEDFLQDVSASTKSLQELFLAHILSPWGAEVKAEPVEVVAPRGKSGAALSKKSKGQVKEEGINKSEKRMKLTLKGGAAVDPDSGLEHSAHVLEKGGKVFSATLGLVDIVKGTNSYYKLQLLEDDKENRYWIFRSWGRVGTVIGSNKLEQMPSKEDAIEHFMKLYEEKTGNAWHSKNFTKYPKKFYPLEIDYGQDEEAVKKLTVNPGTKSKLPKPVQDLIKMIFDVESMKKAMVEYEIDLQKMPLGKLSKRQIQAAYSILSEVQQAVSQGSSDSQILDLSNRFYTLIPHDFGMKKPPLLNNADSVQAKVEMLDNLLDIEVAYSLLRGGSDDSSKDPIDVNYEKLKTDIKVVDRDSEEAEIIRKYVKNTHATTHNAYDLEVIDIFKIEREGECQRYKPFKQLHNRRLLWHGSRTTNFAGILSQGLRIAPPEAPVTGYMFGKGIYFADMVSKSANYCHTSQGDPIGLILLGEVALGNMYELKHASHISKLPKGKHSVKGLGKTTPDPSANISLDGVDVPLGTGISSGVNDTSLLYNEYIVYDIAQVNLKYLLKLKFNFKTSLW

In general, IC50 refers to the concentration at which inhibition is half-maximal. The term inhibition denotes the change of the read-out against control, counted positive when it falls. As to `CN1CCN(c2ncc3c(n2)CCN(C(=O)c2cc(Cc4n[nH]c(=O)c5ccccc45)ccc2F)C3)CC1`, the IC50 in the test on MDA-MB-231 was greater than 200 µM; with MX1, 46.3 µM; in the test on HCC1937 it was 53.4 µM; with SK-BR-3 it was 95.7 µM; in the test on MCF7 [4] it was 72.8 µM. Further, the inhibition at 25 µM with MCF7 [1] came out at 37.4%; in the test on MCF7 [2] it was 55.8%. Also, in the test with MCF7 [3], the CI came to 0.67.
`CCCCN(CCCC)c1ncc2c(n1)CCN(C(=O)c1cc(Cc3n[nH]c(=O)c4ccccc34)ccc1F)C2`: the IC50 in the test with MDA-MB-231 was greater than 200 µM; in the test with MX1, 13.3 µM; in the test with HCC1937, greater than 200 µM; in the test on SK-BR-3, 21.2 µM; in the test with MCF7 [4], 106 µM. Further, the inhibition at 25 µM in the test on MCF7 [1] turned out to be 27.4%; in the test on MCF7 [2], 39.6%. The CI in the test on MCF7 [3] turned out to be 0.79.
For `CCCN(CCC)c1ncc2c(n1)CCN(C(=O)c1cc(Cc3n[nH]c(=O)c4ccccc34)ccc1F)C2`, the IC50 in the test on MDA-MB-231 was greater than 200 µM; in the test with MX1, 92.9 µM; in the test with HCC1937 it was 20.3 µM; in the test with SK-BR-3, greater than 200 µM; in the test with MCF7 [4], 126 µM. Besides, the inhibition at 25 µM in the test on MCF7 [1] was determined as 11.9%; with MCF7 [2] it was 36.6%. Moreover, in the test with MCF7 [3], the CI is on record as 0.36.
As to `O=C(c1cc(Cc2n[nH]c(=O)c3ccccc23)ccc1F)N1CCc2nc(N3CCCC3)ncc2C1`, the IC50 in the test with MDA-MB-231 is greater than 200 µM; in the test on MX1 it was 77 µM; with HCC1937, 7.81 µM; in the test on SK-BR-3, greater than 200 µM; with MCF7 [4] it was 144 µM. Also, the figures for the inhibition at 25 µM in the test on MCF7 [1] and in the test with MCF7 [2] were 24.9% and 40.9%, respectively. In the test with MCF7 [3], the CI stood at 0.61.
Take `O=C(c1cc(Cc2n[nH]c(=O)c3ccccc23)ccc1F)N1CCc2nc(N3CCCCC3)ncc2C1`: the IC50 in the test on MDA-MB-231 was greater than 200 µM; with MX1, 22.7 µM; with HCC1937 it was greater than 200 µM; with SK-BR-3 it was 24.5 µM; with MCF7 [4], 89.8 µM. In addition, the values for the inhibition at 17.5 µM in the test on MCF7 [5] and with MCF7 [7] were 18.9% and 43%, respectively. In addition, in the test with MCF7 [6], the CI is listed as 0.44.
On to `O=C(c1cc(Cc2n[nH]c(=O)c3ccccc23)ccc1F)N1CCN(C(=O)C2CC2)CC1` [OLAPARIB], for which the IC50 with MDA-MB-468 was 200 µM; with MDA-MB-231 it was greater than 200 µM; in the test with HCC1937 it was greater than 200 µM; in the test with MCF7 [4], 409 µM. Further, the results for the inhibition at 25 µM in the test on MCF7 [1] and with MCF7 [2] were 23.5% and 27.9%, respectively. Also, the CI in the test on MCF7 [3] is listed as 0.88.
For the molecule `O=C(c1cc(Cc2n[nH]c(=O)c3ccccc23)ccc1F)N1CCc2nc(N3CCOCC3)ncc2C1`, the half-inhibitory concentration (IC50) in the test on MDA-MB-468 is 15.6 µM; with MDA-MB-231, greater than 200 µM; with MX1, 18.7 µM; in the test on HCC1937, 3.23 µM; in the test on SK-BR-3, 50 µM; in the test on MCF7 [4], 199 µM. Further, the inhibition in [8] came out at 92.1%. For the same molecule, the inhibition entry in [9], in test [10] and in test [11] was “Active” in each case. For the same molecule, the inhibition at 25 µM with MCF7 [1] was determined as 18.6%; in the test on MCF7 [2] it was 47.8%. In addition, the CI in the test with MCF7 [3] worked out at 0.39.
Take `CCN(CC)c1ncc2c(n1)CCN(C(=O)c1cc(Cc3n[nH]c(=O)c4ccccc34)ccc1F)C2`: the IC50 in the test with MDA-MB-231 was greater than 200 µM; in the test with MX1, 28.4 µM; with HCC1937, 66.8 µM; with SK-BR-3 it was greater than 200 µM; with MCF7 [4], 55.8 µM. The inhibition at 10 µM with MCF7 [12] amounted to 37.5%; with MCF7 [13], 21.6%. Besides, the CI in the test on MCF7 [14] worked out at 0.82.
Turning to `CN(C)CCN(C)c1ncc2c(n1)CCN(C(=O)c1cc(Cc3n[nH]c(=O)c4ccccc34)ccc1F)C2`, the concentration for half-maximal inhibition (IC50) was greater than 200 µM with MDA-MB-231; 66.9 µM with MX1; greater than 200 µM with HCC1937; greater than 200 µM in the test on SK-BR-3; 122 µM in the test on MCF7 [4]. For the same molecule, the figures for the inhibition at 25 µM with MCF7 [1] and in the test on MCF7 [2] were 24.6% and 43.9%, respectively. Moreover, the CI in the test with MCF7 [3] was 0.86.
On to `CCN1CCN(c2ncc3c(n2)CCN(C(=O)c2cc(Cc4n[nH]c(=O)c5ccccc45)ccc2F)C3)CC1`, for which the IC50 in the test on MDA-MB-231 is greater than 200 µM; in the test with MX1, 88.8 µM; in the test on HCC1937, 137 µM; with SK-BR-3 it was greater than 200 µM; in the test with MCF7 [4], 90.1 µM. For the same molecule, the inhibition at 25 µM turned out to be 9.13% in the test on MCF7 [1] and 45.7% in the test with MCF7 [2]. Further, the CI in the test with MCF7 [3] worked out at 0.2.
